The source made the active and inactive calls. Rule as the data show it, for most assays here: actives have a measured Kd and inactives only a lower limit.
Assays:
[1] = biological target: Ribosomal protein S6 kinase alpha-1 (Homo sapiens, UniProt Q15418)
[2] = biological target: cAMP-dependent protein kinase catalytic subunit alpha (Homo sapiens, UniProt P17612)
[3] = biological target: Macrophage-stimulating protein receptor (Homo sapiens, UniProt Q04912)
[4] = biological target: Mitogen-activated protein kinase kinase kinase 1 (Homo sapiens, UniProt Q13233)
Mitogen-activated protein kinase kinase kinase 1, sequence (Q13233 whole entry): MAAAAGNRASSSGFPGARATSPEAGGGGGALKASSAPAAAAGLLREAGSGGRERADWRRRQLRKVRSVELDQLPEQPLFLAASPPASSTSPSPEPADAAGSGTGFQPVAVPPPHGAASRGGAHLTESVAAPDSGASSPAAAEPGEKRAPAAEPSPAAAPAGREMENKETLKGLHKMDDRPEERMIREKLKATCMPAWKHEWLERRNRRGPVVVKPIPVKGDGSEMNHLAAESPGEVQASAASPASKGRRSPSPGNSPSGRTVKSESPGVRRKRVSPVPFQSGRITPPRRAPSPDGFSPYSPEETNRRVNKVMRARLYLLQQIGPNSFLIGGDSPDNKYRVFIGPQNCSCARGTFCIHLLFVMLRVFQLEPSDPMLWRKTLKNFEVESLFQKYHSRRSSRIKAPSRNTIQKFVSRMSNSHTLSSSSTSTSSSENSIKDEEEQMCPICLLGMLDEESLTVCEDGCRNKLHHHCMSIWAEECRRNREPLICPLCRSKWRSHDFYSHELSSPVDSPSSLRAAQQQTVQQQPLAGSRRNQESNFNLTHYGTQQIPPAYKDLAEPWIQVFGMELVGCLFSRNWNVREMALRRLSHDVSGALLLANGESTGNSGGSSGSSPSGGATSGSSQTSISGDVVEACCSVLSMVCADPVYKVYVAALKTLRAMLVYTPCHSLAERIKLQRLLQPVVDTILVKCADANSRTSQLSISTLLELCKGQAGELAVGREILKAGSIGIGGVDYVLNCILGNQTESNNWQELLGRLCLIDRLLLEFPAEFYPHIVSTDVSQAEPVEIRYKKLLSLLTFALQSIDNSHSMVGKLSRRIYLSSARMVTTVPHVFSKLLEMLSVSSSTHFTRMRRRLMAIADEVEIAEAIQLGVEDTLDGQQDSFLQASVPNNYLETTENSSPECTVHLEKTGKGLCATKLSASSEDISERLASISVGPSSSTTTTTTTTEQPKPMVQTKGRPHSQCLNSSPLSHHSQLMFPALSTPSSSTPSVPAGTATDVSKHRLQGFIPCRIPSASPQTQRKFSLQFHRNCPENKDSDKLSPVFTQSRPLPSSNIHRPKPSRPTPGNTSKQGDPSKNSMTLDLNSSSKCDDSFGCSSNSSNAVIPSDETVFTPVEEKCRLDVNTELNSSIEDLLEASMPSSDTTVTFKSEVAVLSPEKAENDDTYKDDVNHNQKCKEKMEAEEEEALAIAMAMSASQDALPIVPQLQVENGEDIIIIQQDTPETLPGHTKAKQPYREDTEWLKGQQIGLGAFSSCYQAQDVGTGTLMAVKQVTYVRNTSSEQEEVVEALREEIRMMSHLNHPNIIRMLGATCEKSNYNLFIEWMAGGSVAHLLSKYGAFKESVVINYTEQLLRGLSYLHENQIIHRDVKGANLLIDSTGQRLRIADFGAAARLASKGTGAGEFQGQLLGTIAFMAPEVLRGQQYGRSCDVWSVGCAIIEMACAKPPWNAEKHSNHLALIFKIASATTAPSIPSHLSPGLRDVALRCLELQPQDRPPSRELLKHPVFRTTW

[5] = biological target: Cyclin-dependent kinase 4 (Homo sapiens, UniProt P11802)
Cyclin-dependent kinase 4, sequence (P11802 whole entry): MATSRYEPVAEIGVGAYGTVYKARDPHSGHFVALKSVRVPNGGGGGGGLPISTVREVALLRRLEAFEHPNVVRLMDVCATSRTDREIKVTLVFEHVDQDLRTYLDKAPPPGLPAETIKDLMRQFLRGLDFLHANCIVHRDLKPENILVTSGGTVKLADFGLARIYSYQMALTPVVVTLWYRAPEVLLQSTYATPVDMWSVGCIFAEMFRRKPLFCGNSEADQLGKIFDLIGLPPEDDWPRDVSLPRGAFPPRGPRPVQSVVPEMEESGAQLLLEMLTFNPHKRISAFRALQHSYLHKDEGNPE

[6] = biological target: T1, Serine/threonine-protein kinase LATS1 (Homo sapiens, UniProt O95835)
T1 sequence (O95835 whole entry): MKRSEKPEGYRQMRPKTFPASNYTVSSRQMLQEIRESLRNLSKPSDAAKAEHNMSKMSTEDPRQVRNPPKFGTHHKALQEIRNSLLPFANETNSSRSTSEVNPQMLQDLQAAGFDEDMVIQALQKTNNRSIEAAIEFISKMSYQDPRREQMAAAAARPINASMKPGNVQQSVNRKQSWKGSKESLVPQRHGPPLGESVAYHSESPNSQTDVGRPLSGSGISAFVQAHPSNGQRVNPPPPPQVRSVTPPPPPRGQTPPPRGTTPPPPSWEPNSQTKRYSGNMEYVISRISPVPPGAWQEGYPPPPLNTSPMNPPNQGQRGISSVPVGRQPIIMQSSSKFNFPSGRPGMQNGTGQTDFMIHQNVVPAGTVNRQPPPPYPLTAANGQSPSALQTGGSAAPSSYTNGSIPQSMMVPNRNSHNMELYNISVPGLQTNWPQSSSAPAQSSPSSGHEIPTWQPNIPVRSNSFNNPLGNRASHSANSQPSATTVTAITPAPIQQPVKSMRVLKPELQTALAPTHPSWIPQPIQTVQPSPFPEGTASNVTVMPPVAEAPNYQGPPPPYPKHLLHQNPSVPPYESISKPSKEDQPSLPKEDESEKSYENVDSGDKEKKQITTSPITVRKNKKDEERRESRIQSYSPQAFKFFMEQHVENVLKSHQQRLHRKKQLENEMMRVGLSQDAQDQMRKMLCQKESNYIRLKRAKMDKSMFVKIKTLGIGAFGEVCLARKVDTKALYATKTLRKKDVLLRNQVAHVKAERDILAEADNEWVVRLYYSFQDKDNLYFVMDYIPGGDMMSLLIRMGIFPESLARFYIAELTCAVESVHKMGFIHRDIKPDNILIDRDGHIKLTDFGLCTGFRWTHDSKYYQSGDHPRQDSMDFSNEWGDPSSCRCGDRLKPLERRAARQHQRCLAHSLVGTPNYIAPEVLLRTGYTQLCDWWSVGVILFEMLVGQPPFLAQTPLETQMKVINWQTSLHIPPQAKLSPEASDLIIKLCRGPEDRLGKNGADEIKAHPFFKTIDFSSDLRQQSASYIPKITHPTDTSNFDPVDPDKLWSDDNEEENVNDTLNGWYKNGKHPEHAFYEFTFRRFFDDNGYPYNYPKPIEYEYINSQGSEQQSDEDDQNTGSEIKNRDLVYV

[7] = biological target: T2, Interleukin-1 receptor-associated kinase 3 (Homo sapiens, UniProt Q9Y616)
T2 sequence (Q9Y616 whole entry): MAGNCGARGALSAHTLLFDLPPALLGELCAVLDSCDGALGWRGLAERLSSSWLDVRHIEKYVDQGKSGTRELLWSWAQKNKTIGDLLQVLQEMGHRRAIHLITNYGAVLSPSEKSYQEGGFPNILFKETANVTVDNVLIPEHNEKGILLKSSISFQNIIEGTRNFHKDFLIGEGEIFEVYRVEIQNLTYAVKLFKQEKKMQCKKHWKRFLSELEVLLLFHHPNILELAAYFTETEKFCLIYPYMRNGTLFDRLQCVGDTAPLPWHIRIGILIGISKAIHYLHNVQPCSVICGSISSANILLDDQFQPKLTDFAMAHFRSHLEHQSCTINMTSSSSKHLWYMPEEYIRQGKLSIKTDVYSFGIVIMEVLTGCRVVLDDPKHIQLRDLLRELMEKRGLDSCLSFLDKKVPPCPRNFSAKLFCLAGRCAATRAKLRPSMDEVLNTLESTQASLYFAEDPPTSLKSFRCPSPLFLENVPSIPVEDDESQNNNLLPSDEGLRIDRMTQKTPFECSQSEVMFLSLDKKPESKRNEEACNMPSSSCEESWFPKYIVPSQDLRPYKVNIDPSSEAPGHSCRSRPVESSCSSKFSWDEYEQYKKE

[8] = biological target: Ribosomal protein S6 kinase alpha-4 (Homo sapiens, UniProt O75676)
Ribosomal protein S6 kinase alpha-4, sequence (O75676 whole entry): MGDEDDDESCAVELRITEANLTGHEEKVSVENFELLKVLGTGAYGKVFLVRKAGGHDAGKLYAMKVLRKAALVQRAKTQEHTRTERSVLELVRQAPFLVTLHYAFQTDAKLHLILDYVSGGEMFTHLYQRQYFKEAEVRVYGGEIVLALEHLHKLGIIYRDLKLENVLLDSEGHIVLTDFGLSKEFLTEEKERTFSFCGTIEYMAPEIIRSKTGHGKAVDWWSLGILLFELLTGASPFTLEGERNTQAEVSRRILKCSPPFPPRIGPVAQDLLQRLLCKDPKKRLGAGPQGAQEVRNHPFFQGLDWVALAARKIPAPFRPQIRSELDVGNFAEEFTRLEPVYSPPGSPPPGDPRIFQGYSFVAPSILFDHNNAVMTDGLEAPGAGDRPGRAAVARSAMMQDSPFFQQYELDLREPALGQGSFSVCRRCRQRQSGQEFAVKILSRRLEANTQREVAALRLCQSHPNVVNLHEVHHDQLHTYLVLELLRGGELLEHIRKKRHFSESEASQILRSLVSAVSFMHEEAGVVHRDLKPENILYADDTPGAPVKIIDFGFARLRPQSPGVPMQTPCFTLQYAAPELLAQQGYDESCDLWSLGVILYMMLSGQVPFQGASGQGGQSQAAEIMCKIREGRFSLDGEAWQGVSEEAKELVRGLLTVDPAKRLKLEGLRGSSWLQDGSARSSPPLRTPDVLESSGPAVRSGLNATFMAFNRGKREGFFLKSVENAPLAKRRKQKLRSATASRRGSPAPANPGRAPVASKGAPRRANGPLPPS

[9] = biological target: T3, DNA replication licensing factor MCM4 (Homo sapiens, UniProt P33991)
T3 sequence (P33991 whole entry): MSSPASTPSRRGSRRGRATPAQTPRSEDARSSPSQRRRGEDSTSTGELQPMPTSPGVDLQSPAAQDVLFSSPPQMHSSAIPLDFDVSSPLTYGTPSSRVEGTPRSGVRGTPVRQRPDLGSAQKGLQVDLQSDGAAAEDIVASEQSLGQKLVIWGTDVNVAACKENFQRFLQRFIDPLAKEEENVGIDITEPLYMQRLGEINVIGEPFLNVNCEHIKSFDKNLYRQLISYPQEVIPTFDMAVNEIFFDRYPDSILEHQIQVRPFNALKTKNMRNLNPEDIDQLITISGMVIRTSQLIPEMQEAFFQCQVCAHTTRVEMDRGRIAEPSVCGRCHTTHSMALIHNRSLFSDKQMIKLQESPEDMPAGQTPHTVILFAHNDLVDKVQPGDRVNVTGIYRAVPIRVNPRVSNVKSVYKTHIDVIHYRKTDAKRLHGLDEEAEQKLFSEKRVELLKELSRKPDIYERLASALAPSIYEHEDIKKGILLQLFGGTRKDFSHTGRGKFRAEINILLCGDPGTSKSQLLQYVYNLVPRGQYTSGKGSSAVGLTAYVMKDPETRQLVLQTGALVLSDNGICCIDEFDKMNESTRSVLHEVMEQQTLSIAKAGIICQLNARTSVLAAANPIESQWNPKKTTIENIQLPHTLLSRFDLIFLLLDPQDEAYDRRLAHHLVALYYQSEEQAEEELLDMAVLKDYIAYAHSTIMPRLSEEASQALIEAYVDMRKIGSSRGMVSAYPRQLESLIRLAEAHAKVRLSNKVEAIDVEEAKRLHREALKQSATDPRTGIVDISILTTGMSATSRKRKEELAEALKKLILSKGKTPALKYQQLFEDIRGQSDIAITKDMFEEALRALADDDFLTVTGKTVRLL
Also: in the data inactive means no Kd found up to 30 µM.

Ribosomal protein S6 kinase alpha-1, sequence (Q15418 whole entry): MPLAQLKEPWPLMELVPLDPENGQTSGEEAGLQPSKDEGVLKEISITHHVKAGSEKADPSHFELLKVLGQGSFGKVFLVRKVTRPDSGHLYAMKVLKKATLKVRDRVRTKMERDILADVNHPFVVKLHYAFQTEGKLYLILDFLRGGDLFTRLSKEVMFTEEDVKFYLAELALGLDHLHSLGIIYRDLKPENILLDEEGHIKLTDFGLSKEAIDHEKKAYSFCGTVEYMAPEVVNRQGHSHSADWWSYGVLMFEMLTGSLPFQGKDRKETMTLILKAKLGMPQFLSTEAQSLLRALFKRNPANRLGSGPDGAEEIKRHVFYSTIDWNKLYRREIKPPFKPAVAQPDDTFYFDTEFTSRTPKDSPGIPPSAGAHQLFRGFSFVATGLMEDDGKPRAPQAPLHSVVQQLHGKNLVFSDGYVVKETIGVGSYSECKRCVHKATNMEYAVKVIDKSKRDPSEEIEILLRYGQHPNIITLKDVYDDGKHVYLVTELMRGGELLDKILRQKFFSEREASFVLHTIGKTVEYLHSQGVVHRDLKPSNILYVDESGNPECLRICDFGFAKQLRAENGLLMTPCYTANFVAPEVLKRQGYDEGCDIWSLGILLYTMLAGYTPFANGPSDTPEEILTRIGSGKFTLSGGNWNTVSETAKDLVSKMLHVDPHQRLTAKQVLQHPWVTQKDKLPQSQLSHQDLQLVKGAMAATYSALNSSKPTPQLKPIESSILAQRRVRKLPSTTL
Macrophage-stimulating protein receptor, sequence (Q04912 25-304 limits assumed): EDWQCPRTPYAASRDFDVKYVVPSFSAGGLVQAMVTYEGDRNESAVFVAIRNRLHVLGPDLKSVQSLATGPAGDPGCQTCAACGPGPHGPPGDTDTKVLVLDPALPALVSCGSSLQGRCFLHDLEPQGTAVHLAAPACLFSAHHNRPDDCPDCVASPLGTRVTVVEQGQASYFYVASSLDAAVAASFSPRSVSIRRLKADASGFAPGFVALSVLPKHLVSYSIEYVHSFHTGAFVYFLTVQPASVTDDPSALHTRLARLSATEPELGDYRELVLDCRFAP
Macrophage-stimulating protein receptor, sequence (Q04912 310-1400 limits assumed): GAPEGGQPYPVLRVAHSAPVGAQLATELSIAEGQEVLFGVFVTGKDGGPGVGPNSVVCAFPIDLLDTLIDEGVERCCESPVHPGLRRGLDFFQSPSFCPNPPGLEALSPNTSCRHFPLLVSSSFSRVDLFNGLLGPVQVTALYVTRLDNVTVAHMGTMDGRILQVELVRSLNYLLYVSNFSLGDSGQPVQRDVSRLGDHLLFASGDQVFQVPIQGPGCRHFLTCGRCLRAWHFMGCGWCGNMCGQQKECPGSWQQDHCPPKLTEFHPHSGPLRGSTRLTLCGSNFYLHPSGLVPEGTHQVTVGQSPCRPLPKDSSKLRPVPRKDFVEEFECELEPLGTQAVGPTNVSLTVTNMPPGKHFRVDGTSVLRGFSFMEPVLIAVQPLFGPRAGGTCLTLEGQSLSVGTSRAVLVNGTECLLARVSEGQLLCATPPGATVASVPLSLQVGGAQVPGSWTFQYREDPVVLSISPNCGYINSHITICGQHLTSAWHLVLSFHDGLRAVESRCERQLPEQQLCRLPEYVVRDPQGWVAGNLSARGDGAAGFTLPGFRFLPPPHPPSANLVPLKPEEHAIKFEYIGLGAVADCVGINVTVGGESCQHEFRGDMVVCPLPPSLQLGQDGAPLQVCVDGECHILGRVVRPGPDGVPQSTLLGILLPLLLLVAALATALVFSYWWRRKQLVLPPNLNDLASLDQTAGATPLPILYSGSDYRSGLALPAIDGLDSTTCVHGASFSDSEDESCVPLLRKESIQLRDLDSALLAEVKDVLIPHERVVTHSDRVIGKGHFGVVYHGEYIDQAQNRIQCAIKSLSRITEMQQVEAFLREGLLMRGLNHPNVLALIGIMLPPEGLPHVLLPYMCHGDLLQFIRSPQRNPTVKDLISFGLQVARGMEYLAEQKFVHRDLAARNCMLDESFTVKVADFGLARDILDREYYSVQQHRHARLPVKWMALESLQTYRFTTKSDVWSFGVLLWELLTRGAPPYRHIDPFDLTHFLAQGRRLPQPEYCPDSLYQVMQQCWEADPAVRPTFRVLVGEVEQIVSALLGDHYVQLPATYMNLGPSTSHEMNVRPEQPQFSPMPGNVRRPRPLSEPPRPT

| Structure (SMILES) | Kd [1] | Kd [2] | Kd [3] | Kd [4] | Kd [5] | Kd [6] | Kd [7] | Kd [8] | Kd [9] |
| --- | --- | --- | --- | --- | --- | --- | --- | --- | --- |
| Cc1c(F)cc(C(=O)NC2CC2)cc1-c1ccc(C(=O)NCC(C)(C)C)cn1 [LOSMAPIMOD] | > 30 µM (inactive) | > 30 µM (inactive) | > 30 µM (inactive) | > 30 µM (inactive) | > 30 µM (inactive) | > 30 µM (inactive) | > 30 µM (inactive) | > 30 µM (inactive) | > 30 µM (inactive) |
| O=C(c1ccc(F)c(F)c1Nc1ccc(I)cc1F)N1CC(O)([C@@H]2CCCCN2)C1 [COBIMETINIB] | > 30 µM (inactive) | > 30 µM (inactive) | > 30 µM (inactive) | > 30 µM (inactive) | > 30 µM (inactive) | > 30 µM (inactive) | > 30 µM (inactive) | > 30 µM (inactive) | > 30 µM (inactive) |
| COc1cc(N2CCC(N3CCN(C)CC3)CC2)ccc1Nc1ncnc(Nc2ccccc2S(=O)(=O)C(C)C)n1 [ASP-3026] | > 30 µM (inactive) | > 30 µM (inactive) | > 30 µM (inactive) | > 30 µM (inactive) | > 30 µM (inactive) | > 30 µM (inactive) | > 30 µM (inactive) | > 30 µM (inactive) | > 30 µM (inactive) |
| O=c1sn(-c2cccc3ccccc23)c(=O)n1Cc1ccccc1 [TIDEGLUSIB] | > 30 µM (inactive) | > 30 µM (inactive) | > 30 µM (inactive) | > 30 µM (inactive) | > 30 µM (inactive) | > 30 µM (inactive) | > 30 µM (inactive) | > 30 µM (inactive) | > 30 µM (inactive) |
| CNS(=O)(=O)Nc1nccc(Cc2c(C)c3ccc(Oc4ncccn4)cc3oc2=O)c1F [AVUTOMETINIB] | > 30 µM (inactive) | > 30 µM (inactive) | > 30 µM (inactive) | > 30 µM (inactive) | > 30 µM (inactive) | > 30 µM (inactive) | > 30 µM (inactive) | > 30 µM (inactive) | > 30 µM (inactive) |
| C[C@@H](Nc1cc(F)cc(F)c1)c1cc(C(=O)N(C)C)cc2c(=O)cc(N3CCOCC3)oc12 [AZD-8186] | > 30 µM (inactive) | > 30 µM (inactive) | > 30 µM (inactive) | > 30 µM (inactive) | > 30 µM (inactive) | > 30 µM (inactive) | > 30 µM (inactive) | > 30 µM (inactive) | > 30 µM (inactive) |
| Cc1ccc(S(=O)(=O)Nc2nc3ccccc3nc2Nc2ccc3nsnc3c2)cc1 | > 30 µM (inactive) | > 30 µM (inactive) | > 30 µM (inactive) | > 30 µM (inactive) | > 30 µM (inactive) | > 30 µM (inactive) | > 30 µM (inactive) | > 30 µM (inactive) | > 30 µM (inactive) |
| CN1CCC(CNc2ccc3ncc(-c4cccc(OC(F)(F)F)c4)n3n2)CC1 [SGI-1776] | > 30 µM (inactive) | > 30 µM (inactive) | > 30 µM (inactive) | > 30 µM (inactive) | > 30 µM (inactive) | > 30 µM (inactive) | 0.026 µM (active) | > 30 µM (inactive) | > 30 µM (inactive) |
| CCCS(=O)(=O)Nc1ccc(F)c(C(=O)c2c[nH]c3ncc(-c4ccc(Cl)cc4)cc23)c1F [VEMURAFENIB] | > 30 µM (inactive) | > 30 µM (inactive) | > 30 µM (inactive) | > 30 µM (inactive) | > 30 µM (inactive) | > 30 µM (inactive) | > 30 µM (inactive) | > 30 µM (inactive) | > 30 µM (inactive) |
| C=CC(=O)N1CCC(Oc2cc3c(Nc4ccc(Cl)c(Cl)c4F)ncnc3cc2OC)CC1 [POZIOTINIB] | > 30 µM (inactive) | > 30 µM (inactive) | > 30 µM (inactive) | > 30 µM (inactive) | > 30 µM (inactive) | > 30 µM (inactive) | > 30 µM (inactive) | > 30 µM (inactive) | > 30 µM (inactive) |
